Measurements: patent publication US8975232B2, “Macrocyclic kinase inhibitors and uses thereof” (President and Fellows of Harvard College, priority 2010, dated 2015)
Read-outs that look alike come from different tables or passages of the source.

Columns and labels:
[1] = test system: panel of 44 human kinases; assay: Kinase selectivity panel at 5 μM, Invitrogen SelectScreen; assay type: biochemical; conditions: includes all nine Src-family kinases
Procedure: (§1) Src IC50 determinations and single-point inhibition measurements were performed using Invitrogen's Z′-LYTE Tyr 02 assay kit according to the manufacturer's protocols. All kinase assays were performed at ATP concentrations near KM,ATP values, except where noted otherwise. Active human Src kinase was obtained from Millipore. For kinome profiling and IC50 determinations against non-Src kinases, compounds were submitted to Invitrogen's SelectScreen Kinase Profiling Service.

[2] = test system: Src Thr338Ile; assay: Inhibition of Src gatekeeper mutant; assay type: biochemical, chicken
Excerpt: Kinase domain constructs of human c-Abl (residues 229-512), chicken c-Src (residues 251-533 and residues 83-533), murine Lck (residues 227-509), and human Hck (residues 166-445) were expressed as previously described (Seeliger, Young et al. 2005; Seeliger, Nagar et al. 2007; the entire contents of each of which are incorporated by reference herein). Mutations were introduced into chicken c-Src (residues 251-533) (T338I, C277Q, L297M) by site-directed mutagenesis and verified by DNA sequencing.
For the FRET-based endpoint assay, kinase assays were performed using Invitrogen's Z′-LYTE kinase assay using the Tyr 02 substrate peptide (based upon the optimal Abl substrate peptide […]) according to the manufacturer's instructions. Assays were performed at near KM ATP concentrations for full-length c-Src and full-length c-Src T338I-50 μM and 7 μM, respectively.

[3] = molecular target: T1, Lck (Mus musculus, UniProt P06240); assay: Continuous spectrophotometric kinase activity assay; assay type: biochemical, murine
T1 construct: murine Lck (residues 227-509); made in house

[4] = molecular target: PAK4 (Homo sapiens, UniProt O96013); assay: SelectScreen kinase profiling; assay type: biochemical; conditions: 5 μM
Procedure: as §1

[5] = molecular target: ABL1 (Homo sapiens, UniProt P00519); assay: SelectScreen kinase profiling; assay type: biochemical; conditions: ABL1; 5 μM
Procedure: as §1

[6] = molecular target: MAP2K6 (MKK6) (Homo sapiens, UniProt P52564); assay: SelectScreen kinase profiling; assay type: biochemical; conditions: 5 μM
Procedure: as §1

[7] = molecular target: FYN (Homo sapiens, UniProt P06241); assay: SelectScreen kinase profiling; assay type: biochemical; conditions: FYN; 5 μM
Procedure: as §1

[8] = molecular target: SYK (Homo sapiens, UniProt P43405); assay: SelectScreen kinase profiling; assay type: biochemical; conditions: 5 μM
Procedure: as §1

[9] = molecular target: GSK3B (GSK3 beta) (Homo sapiens, UniProt P49841); assay: SelectScreen kinase profiling; assay type: biochemical; conditions: 5 μM
Procedure: as §1

[10] = molecular target: FLT3 (Homo sapiens, UniProt P36888); assay: SelectScreen kinase profiling; assay type: biochemical; conditions: 5 μM
Procedure: as §1

[11] = molecular target: LYN A (Homo sapiens, UniProt P07948); assay: SelectScreen kinase profiling; assay type: biochemical; conditions: 5 μM
Procedure: as §1

[12] = molecular target: AURKB (Aurora B) (Homo sapiens, UniProt Q96GD4); assay: SelectScreen kinase profiling; assay type: biochemical; conditions: AURKB (Aurora B); 5 μM
Procedure: as §1

[13] = molecular target: MAPK14 (p38 alpha) Direct (Homo sapiens, UniProt Q16539); assay: SelectScreen kinase profiling; assay type: biochemical; conditions: 5 μM
Procedure: as §1

[14] = molecular target: MET (cMet) (Homo sapiens, UniProt P08581); assay: SelectScreen kinase profiling; assay type: biochemical; conditions: 5 μM
Procedure: as §1

[15] = molecular target: MARK2 (Homo sapiens, UniProt Q7KZI7); assay: SelectScreen kinase profiling; assay type: biochemical; conditions: 5 μM
Procedure: as §1

[16] = molecular target: AMPK A1/B1/G1 (Homo sapiens, UniProt Q13131); assay: SelectScreen kinase profiling; assay type: biochemical; conditions: 5 μM
Procedure: as §1

[17] = molecular target: CHEK1 (CHK1) (Homo sapiens, UniProt O14757); assay: SelectScreen kinase profiling; assay type: biochemical; conditions: 5 μM
Procedure: as §1

[18] = molecular target: RET (Homo sapiens, UniProt P07949); assay: SelectScreen kinase profiling; assay type: biochemical; conditions: 5 μM
Procedure: as §1

[19] = molecular target: ROCK1 (Homo sapiens, UniProt Q13464); assay: SelectScreen kinase profiling; assay type: biochemical; conditions: 5 μM
Procedure: as §1

[20] = molecular target: FRK (PTK5) (Homo sapiens, UniProt P42685); assay: SelectScreen kinase profiling; assay type: biochemical; conditions: 5 μM
Procedure: as §1

[21] = molecular target: Src kinase (Homo sapiens, UniProt P12931); assay: Z'-LYTE kinase assay (Invitrogen), Src; assay type: biochemical; set-up: full-length kinase in the Z-LYTE assay vs. kinase domain in the current study; purchased Millipore
In short: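 Human Src activity measured by FRET-based Z′-LYTE Tyr 02 peptide assay at ATP near KM,ATP unless noted. IC50s and single-point inhibition determined over varying macrocycle concentrations. Non-Src kinases tested via a commercial profiling service.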

[22] = molecular target: T2, Src kinase domain (Gallus gallus, UniProt P00523); assay: Fluorescence anisotropy binding assay; set-up: species or system chicken; conditions: fluorescein-labeled macrocycle, read-out: dissociation constant (KD)
T2 construct: chicken c-Src (residues 251-533 and residues 83-533); made in house
Procedure: The change in fluorescence anisotropy of fluorescein-labeled MC1, MC4 and MC9 at 518 nm upon excitation at 492 nm was monitored with a HORIBA Jobin Yvon FluoroMax-4 (Edison, N.J.) spectrofluorimeter. Kinase was titrated to 0.5 μM of the fluorescently labeled macrocycle in 100 mM Tris pH 8.0, 10 mM MgCl2 at 25° C. After equilibration, the increase in the fluorescence anisotropy of the fluorescently labeled ligand was recorded and fitted against a quadratic binding equation in Kaleidagraph (Synergy Software, Reading Pa.) to yield the dissociation constant KD.
To clarify the inhibitory mechanism of the compounds further, the binding affinity of fluorescently labeled MC1, MC4, and MC9 to Src kinase domain was determined in a fluorescence anisotropy assay (FIG. 21).

T1 sequence (P06240 227-509): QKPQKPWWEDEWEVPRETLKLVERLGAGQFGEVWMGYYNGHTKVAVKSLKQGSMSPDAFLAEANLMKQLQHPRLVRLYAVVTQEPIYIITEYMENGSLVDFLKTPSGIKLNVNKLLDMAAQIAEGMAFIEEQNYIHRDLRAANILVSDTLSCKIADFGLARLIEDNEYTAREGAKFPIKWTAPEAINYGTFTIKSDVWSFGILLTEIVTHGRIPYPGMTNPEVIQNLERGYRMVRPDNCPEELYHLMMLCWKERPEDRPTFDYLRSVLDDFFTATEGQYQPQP
Chain of Src kinase (P12931 whole entry, the tested form may be a part): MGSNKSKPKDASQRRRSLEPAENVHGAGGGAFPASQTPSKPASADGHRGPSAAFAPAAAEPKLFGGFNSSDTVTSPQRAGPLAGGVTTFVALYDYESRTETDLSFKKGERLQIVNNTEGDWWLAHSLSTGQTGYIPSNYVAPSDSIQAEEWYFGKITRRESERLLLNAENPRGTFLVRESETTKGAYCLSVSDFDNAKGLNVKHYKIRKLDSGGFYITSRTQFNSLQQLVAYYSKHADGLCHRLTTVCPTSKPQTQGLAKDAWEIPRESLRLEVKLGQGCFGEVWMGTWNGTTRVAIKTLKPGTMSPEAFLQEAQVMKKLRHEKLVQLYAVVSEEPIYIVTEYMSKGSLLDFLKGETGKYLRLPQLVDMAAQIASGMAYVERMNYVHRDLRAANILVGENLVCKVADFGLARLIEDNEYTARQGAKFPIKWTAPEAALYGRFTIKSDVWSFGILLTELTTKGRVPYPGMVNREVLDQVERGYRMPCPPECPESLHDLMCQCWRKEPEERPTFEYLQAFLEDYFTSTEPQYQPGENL
Chain of MARK2 (Q7KZI7 whole entry): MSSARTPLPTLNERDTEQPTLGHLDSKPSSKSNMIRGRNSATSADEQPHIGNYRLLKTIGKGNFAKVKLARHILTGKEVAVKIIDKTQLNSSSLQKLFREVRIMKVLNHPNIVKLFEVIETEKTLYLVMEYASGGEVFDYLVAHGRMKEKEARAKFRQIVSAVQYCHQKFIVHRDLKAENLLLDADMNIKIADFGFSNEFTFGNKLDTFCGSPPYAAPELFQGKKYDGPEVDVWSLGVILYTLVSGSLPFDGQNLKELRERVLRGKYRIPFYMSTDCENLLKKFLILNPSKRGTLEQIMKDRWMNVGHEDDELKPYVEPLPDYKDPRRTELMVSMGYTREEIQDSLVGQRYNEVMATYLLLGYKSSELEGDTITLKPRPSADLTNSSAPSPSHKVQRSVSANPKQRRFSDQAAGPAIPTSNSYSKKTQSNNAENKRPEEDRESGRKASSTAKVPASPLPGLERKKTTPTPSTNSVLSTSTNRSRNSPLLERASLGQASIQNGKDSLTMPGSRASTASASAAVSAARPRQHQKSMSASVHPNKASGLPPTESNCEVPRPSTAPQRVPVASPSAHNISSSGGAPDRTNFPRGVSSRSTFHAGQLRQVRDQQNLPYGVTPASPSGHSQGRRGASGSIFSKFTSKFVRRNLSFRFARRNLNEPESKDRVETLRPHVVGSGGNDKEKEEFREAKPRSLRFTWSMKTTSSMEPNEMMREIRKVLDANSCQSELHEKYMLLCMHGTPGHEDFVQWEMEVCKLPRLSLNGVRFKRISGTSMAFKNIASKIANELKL
Chain of ABL1 (P00519 whole entry): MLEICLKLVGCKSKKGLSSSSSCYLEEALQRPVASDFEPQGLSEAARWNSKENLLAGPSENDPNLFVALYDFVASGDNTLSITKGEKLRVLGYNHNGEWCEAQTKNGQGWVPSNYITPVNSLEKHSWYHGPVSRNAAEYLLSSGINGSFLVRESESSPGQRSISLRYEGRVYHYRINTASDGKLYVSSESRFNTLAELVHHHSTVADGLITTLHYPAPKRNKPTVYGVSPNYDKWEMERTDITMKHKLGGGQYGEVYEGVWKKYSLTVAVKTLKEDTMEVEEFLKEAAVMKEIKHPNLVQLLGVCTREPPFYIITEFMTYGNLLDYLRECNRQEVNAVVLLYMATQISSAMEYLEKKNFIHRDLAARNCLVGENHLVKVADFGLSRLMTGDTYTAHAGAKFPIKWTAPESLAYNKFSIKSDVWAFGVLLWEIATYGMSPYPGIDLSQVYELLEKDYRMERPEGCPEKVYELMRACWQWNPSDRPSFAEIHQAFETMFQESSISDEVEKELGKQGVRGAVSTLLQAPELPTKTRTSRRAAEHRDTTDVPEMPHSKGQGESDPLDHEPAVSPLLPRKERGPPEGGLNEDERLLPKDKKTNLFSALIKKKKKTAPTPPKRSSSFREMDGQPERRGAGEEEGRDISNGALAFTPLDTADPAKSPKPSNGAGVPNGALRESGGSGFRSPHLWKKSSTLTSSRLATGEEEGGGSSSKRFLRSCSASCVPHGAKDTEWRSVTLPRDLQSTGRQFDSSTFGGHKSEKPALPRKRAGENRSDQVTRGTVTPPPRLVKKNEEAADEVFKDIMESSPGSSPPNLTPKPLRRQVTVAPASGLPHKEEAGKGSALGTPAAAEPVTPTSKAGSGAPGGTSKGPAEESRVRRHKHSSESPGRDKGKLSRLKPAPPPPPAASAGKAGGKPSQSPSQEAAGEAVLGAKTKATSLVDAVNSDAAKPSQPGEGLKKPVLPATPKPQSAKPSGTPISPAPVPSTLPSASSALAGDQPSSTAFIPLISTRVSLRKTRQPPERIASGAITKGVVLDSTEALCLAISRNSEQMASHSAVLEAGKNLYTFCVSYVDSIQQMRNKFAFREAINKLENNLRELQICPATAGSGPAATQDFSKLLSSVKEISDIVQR
Chain of AURKB (Aurora B) (Q96GD4 whole entry): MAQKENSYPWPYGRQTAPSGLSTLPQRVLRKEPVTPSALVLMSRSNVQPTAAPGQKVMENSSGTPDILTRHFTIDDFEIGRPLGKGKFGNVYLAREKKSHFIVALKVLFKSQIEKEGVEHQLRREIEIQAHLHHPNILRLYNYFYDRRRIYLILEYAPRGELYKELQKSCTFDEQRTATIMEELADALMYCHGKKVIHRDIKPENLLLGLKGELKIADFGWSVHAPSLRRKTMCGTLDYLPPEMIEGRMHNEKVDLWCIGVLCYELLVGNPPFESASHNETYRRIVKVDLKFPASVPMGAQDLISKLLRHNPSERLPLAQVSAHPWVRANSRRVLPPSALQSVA
Chain of FYN (P06241 whole entry): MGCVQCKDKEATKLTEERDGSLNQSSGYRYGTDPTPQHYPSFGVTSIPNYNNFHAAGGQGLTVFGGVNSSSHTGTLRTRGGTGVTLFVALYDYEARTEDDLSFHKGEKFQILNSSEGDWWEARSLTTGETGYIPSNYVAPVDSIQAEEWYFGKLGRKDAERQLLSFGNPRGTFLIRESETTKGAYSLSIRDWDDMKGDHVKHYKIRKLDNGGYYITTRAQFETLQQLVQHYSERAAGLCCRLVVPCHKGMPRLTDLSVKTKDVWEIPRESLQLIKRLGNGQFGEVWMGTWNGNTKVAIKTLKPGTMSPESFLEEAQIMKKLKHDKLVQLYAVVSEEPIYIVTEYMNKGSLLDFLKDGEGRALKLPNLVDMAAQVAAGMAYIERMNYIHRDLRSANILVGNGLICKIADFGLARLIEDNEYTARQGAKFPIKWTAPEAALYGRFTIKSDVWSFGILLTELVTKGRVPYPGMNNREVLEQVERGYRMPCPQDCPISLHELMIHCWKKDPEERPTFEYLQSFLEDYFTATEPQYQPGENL
Chain of PAK4 (O96013 whole entry): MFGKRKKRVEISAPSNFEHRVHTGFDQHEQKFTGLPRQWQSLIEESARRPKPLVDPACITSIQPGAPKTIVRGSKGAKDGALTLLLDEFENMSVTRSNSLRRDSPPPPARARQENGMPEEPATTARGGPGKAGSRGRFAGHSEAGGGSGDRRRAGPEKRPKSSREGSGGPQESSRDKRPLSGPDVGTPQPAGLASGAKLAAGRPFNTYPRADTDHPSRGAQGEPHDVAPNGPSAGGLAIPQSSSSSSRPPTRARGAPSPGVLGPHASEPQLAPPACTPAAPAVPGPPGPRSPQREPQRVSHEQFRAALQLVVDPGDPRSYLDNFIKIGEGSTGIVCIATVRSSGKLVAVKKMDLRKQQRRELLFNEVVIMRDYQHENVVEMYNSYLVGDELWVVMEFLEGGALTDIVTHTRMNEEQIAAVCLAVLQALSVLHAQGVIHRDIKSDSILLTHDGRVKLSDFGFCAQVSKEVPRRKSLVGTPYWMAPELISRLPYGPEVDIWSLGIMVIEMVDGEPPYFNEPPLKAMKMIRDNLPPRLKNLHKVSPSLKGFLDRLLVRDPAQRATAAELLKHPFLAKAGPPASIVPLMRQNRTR
Chain of GSK3B (GSK3 beta) (P49841 whole entry): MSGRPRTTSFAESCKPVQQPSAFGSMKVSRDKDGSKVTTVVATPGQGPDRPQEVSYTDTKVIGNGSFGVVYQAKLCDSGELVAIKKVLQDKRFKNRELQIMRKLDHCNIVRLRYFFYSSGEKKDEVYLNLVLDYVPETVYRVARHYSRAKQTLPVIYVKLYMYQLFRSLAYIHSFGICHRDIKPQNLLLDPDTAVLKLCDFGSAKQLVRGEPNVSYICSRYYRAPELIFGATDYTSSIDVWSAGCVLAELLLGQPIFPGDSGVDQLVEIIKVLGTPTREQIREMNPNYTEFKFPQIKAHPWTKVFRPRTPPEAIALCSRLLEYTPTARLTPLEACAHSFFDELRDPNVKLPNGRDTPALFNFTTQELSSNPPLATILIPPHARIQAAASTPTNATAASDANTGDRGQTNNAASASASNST
Chain of MAP2K6 (MKK6) (P52564 whole entry): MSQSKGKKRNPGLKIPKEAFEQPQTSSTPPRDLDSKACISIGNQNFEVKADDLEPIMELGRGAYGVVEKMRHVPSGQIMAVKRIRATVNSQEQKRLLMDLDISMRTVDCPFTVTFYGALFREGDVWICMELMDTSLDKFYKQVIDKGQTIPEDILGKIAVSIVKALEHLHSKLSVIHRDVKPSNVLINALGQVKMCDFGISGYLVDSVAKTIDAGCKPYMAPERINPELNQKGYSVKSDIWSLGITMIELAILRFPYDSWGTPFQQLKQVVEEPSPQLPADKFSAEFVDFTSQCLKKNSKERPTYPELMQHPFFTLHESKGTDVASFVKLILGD

NC(=O)[C@@H]1CCCNC(=O)[C@H](Cc2ccc([N+](=O)[O-])cc2)NC(=O)[C@H](Cc2ccco2)NC(=O)[C@H](CC2CC2)NC(=O)/C=C/C(=O)N1 [trans-A10-B1-C5-D6]
off-target inhibition in kinase panel (in words) [1]: no significant off-target inhibition | inhibition of Src Thr338Ile gatekeeper mutant (in words) [2]: retained their inhibition potency | IC50 ([3]; 5 μM ATP, 100 μM Src optimal peptide): > 100 µM | IC50 ([3]; 5 μM ATP, 300 μM Src optimal peptide): > 100 µM | IC50 ([3]; 250 μM ATP, 300 μM Src optimal peptide): > 100 µM | % inhibition [4]: −2% | % inhibition [5]: 18% | % inhibition [6]: −1% | % inhibition [7]: −1% | % inhibition [8]: −1% | % inhibition [9]: −6% | % inhibition [10]: 7% | % inhibition [11]: 9% | % inhibition [12]: 0% | % inhibition [13]: −9% | % inhibition [14]: −8% | % inhibition [15]: 1% | % inhibition [16]: −1% | % inhibition [17]: −15% | % inhibition [18]: 6% | % inhibition [19]: 12% | % inhibition [20]: 15% | % inhibition ([21]; SRC, 5 μM, data from FIG. 8 and Table 6): 86% | mode of Src inhibition ([21]; apparent KM for ATP versus macrocycle concentration): ATP-competitive | Kd ([22]; 250 μM AMP-PNP): 1.7 µM | Kd ([22]; no competitor): 0.3 µM
